# According to patent US20250059175A1, “Mutant Pi3k-Alpha Inhibitors And Their Use As Pharmaceuticals” (Prelude Therapeutics Incorporated, priority 2023, published 2025):
# Like-named read-outs stand apart in the source and are kept apart here.
# Test system: phosphorylation of AKT on Ser473 (PI3K pathway) in T-47D (heterozygous PIK3CA H1047R) cell line
# Experiment: PI3K pathway activation assay (pAKT Ser473 HTRF), T-47D cells
# Assay type: cell-based
# Details: read-out: T47D pAKT IC50
# Experimental: The inhibitory activity of the compounds of the disclosure was evaluated by measuring phosphorylation of AKT on Ser473 as a readout of the PI3K pathway using HTRF (CisBio catalog number: 64AKSPE). These studies were conducted in the T-47D (heterozygous PIK3CA H1047R) and SKBR3 (PIK3CA WT) cell lines. Cells were maintained in a 37° C. incubator at 5% CO2 in the following media: T-47D: RPMI 1640, ATCC© Modification (Gibco, A10491-01) supplemented with 10% v/v FBS (Gibco, 26140-079), 1% penicillin streptomycin (Gibco, 15140-122), and 7.4 ug/mL insulin (MilliporeSigma, I9278); SKBR3: McCoy's 5a (Modified) Medium (Gibco, 16600-082) supplemented with 10% v/v FBS (Gibco, 26140-079). Cells were seeded in 384-well plates at a density of 4,000 cells/well. Compounds dissolved in DMSO were added using a digital dispense (D300E, Tecan) 10-point serial dilution. After two hours of treatment, cells were lysed for thirty minutes and then incubated with detection reagents per HTRF kit material and manufacturer's instructions. Fluorescence signal was measured with a multimode plate reader (Envision 2105, Perkin Elmer). Fluorescent signal was normalized to background and DMSO controls to obtain percent inhibition/activity for each compound.
# [1] = Homo sapiens, T47D, 2 h, T-47D (heterozygous PIK3CA H1047R) cells, two hours of treatment, pAKT Ser473 HTRF
# [2] = T-47D (heterozygous PIK3CA H1047R) cells, two hours of treatment, pAKT Ser473 HTRF
Structure (SMILES),IC50 [1],also measured
"Cc1cc([C@@H](C)Nc2ccc(Cl)nc2C(=O)O)nc(N2C(=O)OC[C@@H]2Cc2ccccc2Br)c1 [Example 22, 3-(((R)-1-(6-((S)-4-(2-Bromobenzyl)-2-oxooxazolidin-3-yl)-4-methylpyridin-2-yl)ethyl)amino)-6-chloropicolinic acid]",,"IC50 (Homo sapiens, T47D, 2 h): 100 to 1000 nM"
"Cc1cc([C@@H](C)Nc2ccc(Cl)nc2C(=O)O)nc(N2C(=O)OC[C@@H]2Cc2cnn(C)c2)c1 [Example 32, 6-Chloro-3-(((R)-1-(4-methyl-6-((S)-4-((1-methyl-1H-pyrazol-4-yl)methyl)-2-oxooxazolidin-3-yl)pyridin-2-yl)ethyl)amino)picolinic acid]",100 to 1000 nM,
"Cc1cc([C@@H](C)Nc2ccc(Cl)nc2C(=O)O)nc(N2C(=O)OC[C@@H]2CCc2ccccc2)c1 [Example 53, 6-Chloro-3-(((R)-1-(4-methyl-6-((S)-2-oxo-4-phenethyloxazolidin-3-yl)pyridin-2-yl)ethyl)amino)picolinic acid]",100 to 1000 nM,
"CC(Nc1ccc(F)nc1C(=O)O)c1cc(Cl)cc(N2C(=O)OC[C@@H]2Cc2ccccc2)c1 (stereo partly drawn) [Example 7, 3-((1-(3-((S)-4-Benzyl-2-oxooxazolidin-3-yl)-5-chlorophenyl)ethyl)amino)-6-fluoropicolinic acid]",100 to 1000 nM,
"Cc1cc([C@@H](C)Nc2ccc(Cl)nc2C(=O)O)nc(N2C(=O)OC[C@@H]2Cc2ccc(C(=O)OC(C)(C)C)cc2)c1 [Example 25, 3-(((R)-1-(6-((S)-4-(4-(tert-Butoxycarbonyl)benzyl)-2-oxooxazolidin-3-yl)-4-methylpyridin-2-yl)ethyl)amino)-6-chloropicolinic acid]",100 to 1000 nM,
"COc1ccc(NC(C)c2cc(C)cc(N3C(=O)OC[C@@H]3Cc3ccccc3)n2)c(C(=O)O)n1 (single isomer, unassigned) [Example 16]",100 to 1000 nM,
"Cc1cc([C@@H](C)Nc2ccc(Cl)nc2C(=O)O)nc(N2C(=O)OC[C@@H]2Cc2cn(C)c3ccccc23)c1 [Example 37, 6-Chloro-3-(((R)-1-(4-methyl-6-((S)-4-((1-methyl-1H-indol-3-yl)methyl)-2-oxooxazolidin-3-yl)pyridin-2-yl)ethyl)amino)picolinic acid]",< 100 nM,
"Cc1cc([C@@H](C)Nc2ccc(Cl)nc2C(=O)O)nc(N2C(=O)OC[C@@H]2Cc2ccc3cncn3c2)c1 [Example 41, 6-Chloro-3-(((R)-1-(6-((S)-4-(imidazo[1,5-α]pyridin-6-ylmethyl)-2-oxooxazolidin-3-yl)-4-methylpyridin-2-yl)ethyl)amino)picolinic acid]",,IC50 [2]: 100 to 1000 nM
"Cc1cc(C(C)Nc2ccccc2C(=O)O)nc(N2C(=O)OC[C@@H]2Cc2ccccc2)c1 (stereo partly drawn) [Example 17, 2-((1-(6-((S)-4-Benzyl-2-oxooxazolidin-3-yl)-4-methylpyridin-2-yl)ethyl)amino)benzoic acid]",1000 to 10000 nM,
"Cc1cc([C@@H](C)Nc2ccc(Cl)nc2C(=O)O)nc(N2C(=O)OC[C@@H]2Cc2ccc(C(=O)N(C)C)cc2)c1 [Example 51, 6-Chloro-3-(((R)-1-(6-((S)-4-(4-(dimethylcarbamoyl)benzyl)-2-oxooxazolidin-3-yl)-4-methylpyridin-2-yl)ethyl)amino)picolinic acid]",100 to 1000 nM,
"Cc1cc([C@@H](C)Nc2ccc(Cl)nc2C(=O)O)nc(N2C(=O)OC[C@@H]2Cc2cn(C)nc2F)c1 [Example 36, 6-Chloro-3-(((R)-1-(6-((S)-4-((3-fluoro-1-methyl-1H-pyrazol-4-yl)methyl)-2-oxooxazolidin-3-yl)-4-methylpyridin-2-yl)ethyl)amino)picolinic acid]",100 to 1000 nM,
"Cc1cc([C@@H](C)Nc2ccc(Cl)nc2C(=O)O)nc(N2C(=O)OCC[C@@H]2Cc2ccccc2)c1 [Example 56, 3-(((R)-1-(6-((S)-4-Benzyl-2-oxo-1,3-oxazinan-3-yl)-4-methylpyridin-2-yl)ethyl)amino)-6-chloropicolinic acid]",100 to 1000 nM,
"Cc1cc(C(C)Nc2cccnc2C(=O)O)nc(N2C(=O)OC[C@@H]2Cc2ccccc2)c1 (single isomer, unassigned) [Example 13]",100 to 1000 nM,
"Cc1cc([C@@H](C)Nc2ccc(Cl)nc2C(=O)O)nc(N2C(=O)OC[C@@H]2Cc2cn(C)nc2C)c1 [Example 35, 6-Chloro-3-(((R)-1-(6-((S)-4-((1,3-dimethyl-1H-pyrazol-4-yl)methyl)-2-oxooxazolidin-3-yl)-4-methylpyridin-2-yl)ethyl)amino)picolinic acid]",100 to 1000 nM,
"Cc1cc([C@@H](C)Nc2ccc(Cl)nc2C(=O)O)nc(N2C(=O)OC[C@@H]2Cc2ccnn2C)c1 [Example 34, 6-Chloro-3-(((R)-1-(4-methyl-6-((S)-4-((1-methyl-1H-pyrazol-5-yl)methyl)-2-oxooxazolidin-3-yl)pyridin-2-yl)ethyl)amino)picolinic acid]",100 to 1000 nM,
"Cc1cc([C@@H](C)Nc2ccc(Cl)nc2C(=O)O)nc(N2C(=O)CCC2Cc2ccccc2)c1 (stereo partly drawn) [Example 55, 3-(((1R)-1-(6-(2-benzyl-5-oxopyrrolidin-1-yl)-4-methylpyridin-2-yl)ethyl)amino)-6-chloropicolinic acid]",1000 to 10000 nM,
"CC(Nc1ccc(Cl)nc1C(=O)O)c1cc(F)cc(N2C(=O)OC[C@@H]2Cc2ccccc2)c1 (stereo partly drawn) [Example 4, 3-((1-(3-((S)-4-Benzyl-2-oxooxazolidin-3-yl)-5-fluorophenyl)ethyl)amino)-6-chloropicolinic acid]",100 to 1000 nM,
"Cc1cc([C@@H](C)Nc2ccc(Cl)nc2C(=O)O)nc(N2C(=O)OC[C@@H]2Cc2cccn3nccc23)c1 [Example 45, 6-Chloro-3-(((R)-1-(4-methyl-6-((S)-2-oxo-4-(pyrazolo[1,5-α]pyridin-4-ylmethyl)oxazolidin-3-yl)pyridin-2-yl)ethyl)amino)picolinic acid]",,IC50 [2]: < 100 nM
"Cc1cc([C@@H](C)Nc2ccc(Cl)nc2C(=O)O)nc(N2C(=O)OC[C@]2(C)Cc2ccccc2)c1 [Example 54, 3-(((R)-1-(6-((S)-4-Benzyl-4-methyl-2-oxooxazolidin-3-yl)-4-methylpyridin-2-yl)ethyl)amino)-6-chloropicolinic acid]",100 to 1000 nM,
"Cc1cc(C(C)Nc2ccc(Cl)nc2C(=O)O)cc(N2C(=O)OC[C@@H]2Cc2ccccc2)c1 (single isomer, unassigned) [Example 2]",100 to 1000 nM,
"Cc1cc([C@@H](C)Nc2ccc(Cl)nc2C(=O)O)nc(N2C(=O)OC[C@@H]2Cc2ccc3c(cnn3C)c2)c1 [Example 42, 6-Chloro-3-(((R)-1-(4-methyl-6-((S)-4-((1-methyl-1H-indazol-5-yl)methyl)-2-oxooxazolidin-3-yl)pyridin-2-yl)ethyl)amino)picolinic acid]",< 100 nM,
"Cc1cc([C@@H](C)Nc2ccc(Cl)nc2C(=O)O)nc(N2C(=O)OC[C@@H]2Cc2ccn3nccc3c2)c1 [Example 40, 6-Chloro-3-(((R)-1-(4-methyl-6-((S)-2-oxo-4-(pyrazolo[1,5-α]pyridin-5-ylmethyl)oxazolidin-3-yl)pyridin-2-yl)ethyl)amino)picolinic acid]",,IC50 [2]: < 100 nM
"Cc1cc([C@@H](C)Nc2ccc(Cl)nc2C(=O)O)nc(N2C(=O)OC[C@@H]2Cc2ccncc2)c1 [Example 28, 6-Chloro-3-(((R)-1-(4-methyl-6-((S)-2-oxo-4-(pyridin-4-ylmethyl)oxazolidin-3-yl)pyridin-2-yl)ethyl)amino)picolinic acid]",100 to 1000 nM,
